Laboratory results as given in patent US4006238A, “Use of 2-(hydroxyalkyl)-1H-benz[de]isoquinoline-1,3(2H)-diones as anti-allergy agents” (E. R. Squibb & Sons, Inc., priority 1975, dated 1977).

test system: reaginic antibody induced passive cutaneous anaphylaxis (PCA) reaction; assay: reaginic antibody induced passive cutaneous anaphylaxis (PCA) reaction in rats; assay type: in vivo; conditions: male rat; anti-Egg Albumin intradermal; two doses of test compound (75 mg./kg.) intraperitoneally, 90 and 10 minutes prior to intravenous Egg Albumin/Evans Blue challenge; scored thirty minutes after
Procedure: The compounds of formula I are anti-allergics which inhibit the effects of certain antigen-antibody reactions and in particular inhibit the release of mediators such as histamine. The anti-allergy activity of these compounds is determined by the reaginic antibody induced passive cutaneous anaphylaxis (PCA) reaction in rats. (See Bach, Immediate Hypersensitivity: Laboratory Models and Experimental Findings, Ann. Rep. Med. Chem., 7: 238-248 (1972), for a discussion of the predictability of clinical efficacy of compounds active in the PCA).
The experimental procedure employed is as follows. A male rat is given an intradermal injection on one flank of 0.05 ml. of antibody (reaginic) (anti-Egg Albumin). 24 hours later two doses of test compound (75 mg./kg.) are administered intraperitoneally, one dose ninety minutes and the other ten minutes prior to a 0.5 ml. intravenous injection of an antigen challenge (equal portions of Egg Albumin 4 mg./ml. and 1% Evans Blue Dye). […] A score is obtained according to the formula
Total score = (diameter) × (intensity)
wherein the intensity of the spot is rated on a scale of 1 to 3 as follows
and the diameter is determined by averaging in millimeters two measured diameters of the reaction.
The percent inhibition is calculated by comparing the scores obtained in both compound and non-compound treated animals according to a pre-determined standard curve relationship between score and the quantity of antibody used to elicit the reaction.

SMILES | Percent Inhibition
O=C1c2cccc3cccc(c23)C(=O)N1CO [2-(Hydroxymethyl)-1H-benz[de]isoquinoline-1,3(2H)-dione] | 50%
O=C1c2cccc3cccc(c23)C(=O)N1CCCCCO [2-(5-Hydroxypentyl)-1H-benz[de]isoquinoline-1,3(2H)-dione] | 8%
O=C1c2cccc3cccc(c23)C(=O)N1CCO [2-(2-Hydroxyethyl)-1H-benz[de]isoquinoline-1,3(2H)-dione] | 36%
O=C1c2cccc3cccc(c23)C(=O)N1CCCCO [2-(4-Hydroxybutyl)-1H-benz[de]isoquinoline-1,3(2H)-dione] | 53%
O=C1c2cccc3cccc(c23)C(=O)N1CCCO [2-(3-Hydroxypropyl)-1H-benz[de]isoquinoline-1,3(2H)-dione] | 52%
